Assay results from the supplement of paper PMC10307832.

How the values were obtained:
Test in all cases: relative viability (nuclei count vs DMSO), 5 days (fraction); higher = more cells survive
[1] = compound: CC(C)C[C@H](NC(=O)[C@H](Cc1ccccc1)NC(=O)c1cnccn1)B(O)O [Bortezomib] + COc1cccc2cc(-c3nc([C@H]4CC[C@H](C(=O)O)CC4)n4ncnc(N)c34)[nH]c12 [OSI-027] (partner 0.5 µM)
In short: (§1)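 For relative viability, nuclei counts in treated wells were divided by those in vehicle wells. Lung cancer cell lines had been pin-tool dosed in 1536-well plates the day after seeding and cultured for 5 days, then fixed and stained in one step (final 0.05% Triton X-100, 1% formaldehyde, 1 ug/ml Hoechst) and imaged at 4×. Doses were one drug alone or a fixed anchor-drug dose plus five library-drug doses (not always all listed) in √10 steps, and values are duplicate-plate medians.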

[2] = compound: COC1=CC(c2cc3ccccc3[nH]2)=N/C1=C\c1[nH]c(C)cc1C [Obatoclax] + CS(=O)(=O)CCNCc1ccc(-c2ccc3ncnc(Nc4ccc(OCc5cccc(F)c5)c(Cl)c4)c3c2)o1 [Lapatinib] (partner 2 µM)
In short: as §1

[3] = compound: COC1=CC(c2cc3ccccc3[nH]2)=N/C1=C\c1[nH]c(C)cc1C [Obatoclax] + CCNC(=O)c1noc(-c2cc(C(C)C)c(O)cc2O)c1-c1ccc(CN2CCOCC2)cc1 [Luminespib] (partner 0.01 µM)
In short: as §1

[4] = compound: COC1=CC(c2cc3ccccc3[nH]2)=N/C1=C\c1[nH]c(C)cc1C [Obatoclax] + CC(=O)Nc1cccc(-n2c(=O)n(C3CC3)c(=O)c3c(Nc4ccc(I)cc4F)n(C)c(=O)c(C)c32)c1 [Trametinib] (partner 0.02 µM)
In short: as §1

| Cell Line | relative viability ([1]; first compound 0.0002 µM) | relative viability ([1]; first compound 0.000632 µM) | relative viability ([1]; first compound 0.002 µM) | relative viability ([1]; first compound 0.006325 µM) | relative viability ([1]; first compound 0.02 µM) | relative viability ([2]; first compound 0.01 µM) | relative viability ([2]; first compound 0.03162 µM) | relative viability ([2]; first compound 0.1 µM) | relative viability ([2]; first compound 0.3162 µM) | relative viability ([2]; first compound 1 µM) | relative viability ([3]; first compound 0.01 µM) | relative viability ([3]; first compound 0.03162 µM) | relative viability ([3]; first compound 0.1 µM) | relative viability ([3]; first compound 0.3162 µM) | relative viability ([3]; first compound 1 µM) | relative viability ([4]; first compound 0.01 µM) | relative viability ([4]; first compound 0.03162 µM) | relative viability ([4]; first compound 0.1 µM) | relative viability ([4]; first compound 0.3162 µM) | relative viability ([4]; first compound 1 µM) |
| --- | --- | --- | --- | --- | --- | --- | --- | --- | --- | --- | --- | --- | --- | --- | --- | --- | --- | --- | --- | --- |
| NCI-H1915 | 0.582 | 0.507 | 0.613 | 0.186 | 0.0754 | 1.03 | 0.879 | 0.852 | 0.978 | 0.925 | 0.725 | 0.664 | 0.749 | 0.713 | 0.796 | 0.296 | 0.285 | 0.328 | 0.284 | 0.315 |
| NCI-H1944 | 0.383 | 0.383 | 0.449 | 0.347 | 0.239 | 0.904 | 0.659 | 0.791 | 0.794 | 0.787 | 0.794 | 0.66 | 0.735 | 0.75 | 0.636 | 0.407 | 0.391 | 0.428 | 0.392 | 0.398 |
| NCI-H1975 | 0.674 | 0.624 | 0.196 | 0.111 | 0.106 | 1.01 | 0.823 | 0.649 | 0.825 | 0.341 | 0.316 | 0.196 | – | 0.472 | 0.306 | 0.407 | 0.32 | 0.213 | 0.352 | 0.206 |
| NCI-H1993 | 0.508 | 0.552 | 0.546 | 0.47 | 0.53 | 0.809 | 0.771 | 0.835 | 0.755 | 0.865 | 0.868 | 0.869 | 0.845 | 0.615 | 0.863 | 0.553 | 0.632 | 0.574 | 0.462 | 0.72 |
| NCI-H2009 | 0.664 | 0.585 | 0.486 | 0.0717 | 0.084 | 0.92 | 1 | 0.447 | 0.234 | 0.222 | 0.928 | 0.981 | 0.993 | 0.713 | 0.246 | 0.32 | 0.313 | 0.252 | 0.304 | 0.192 |
| NCI-H2023 | 0.464 | 0.373 | 0.43 | 0.0814 | 0.0616 | 1.08 | 0.755 | 0.761 | 0.622 | 0.122 | 0.57 | 0.799 | 0.556 | 0.257 | 0.107 | 0.59 | 0.575 | 0.595 | 0.362 | 0.226 |
| NCI-H2085 | 0.684 | 0.675 | 0.787 | 0.286 | 0.204 | 0.808 | 0.695 | 0.686 | 0.533 | 0.394 | 0.389 | 0.432 | 0.44 | 0.283 | 0.347 | 0.671 | 0.598 | 0.582 | 0.405 | 0.377 |
| NCI-H2087 | 0.667 | 0.401 | 0.224 | 0.0576 | 0.0622 | 0.954 | 0.901 | 0.776 | 0.623 | 0.304 | 0.164 | 0.166 | 0.161 | 0.121 | 0.121 | 0.2 | 0.204 | 0.22 | 0.145 | 0.122 |
